Test results reported in EP0536177B1, “THROMBIN INHIBITORS BASED ON THE AMINO ACID SEQUENCE OF HIRUDIN” (MAJESTY (HER) IN RIGHT OF CANADA as represented by THE …, priority 1990, dated 1991).
Where no end group is shown, it is not given here.

Columns and labels:
[1] = Stability of polypeptides in plasma against proteolysis; type: in vitro ADME; settings: incubation at 37°C in reconstituted normal human plasma with thromboplastin and calcium chloride, pH 7.8 (Figure 3)
Protocol: The peptides of this invention were evaluated for in vitro plasma stability against proteolysis.
600 µg of peptide was mixed with 250 µl of reconstituted normal human plasma, 250 µl of thromboplastin, 600 µg of calcium chloride and 50 mM NaHPO4 buffer ph 7.8 to a final volume of 900 µl.
The mixture was incubated at 37°C and 100 µl aliquots were removed at designated time intervals. 20 µl of 10% trichloroacetic acid was added to individual aliquot and centrifuged at 12 X K for 10 minutes. The supernatant was injected on a C18 analytical column and chromatographed by standard elution procedure (i.e. at 60% 0.1% TFA/H2O to 0.1 TFA in CH3CN).

rats = test: Antithrombotic activity in the arteriovenous shunt model; type: in vivo, rat; settings: dose which causes a prolongation of the time until occlusion of the shunt by 15 min, 5 min after intravenous administration
Protocol: The rat anaesthetized with urethane is fixed in supine position on a temperature-controlled heating plate. The right carotid artery and the left jugular vein are catheterized with short polyethylene catheters (Portex, PE 50). The catheters are filled with physiological saline solution and clamped. The two ends of the catheters are connected with a 2-cm glass capillary (internal diameter 1.0 mm) acting as a thrombogenic surface, 5 min after intravenous administration of the test substance or its solvent (control) the clamps occluding the arteriovenous shunt are opened. The blood flowing through the shunt leads to a rapid rise in temperature of the glass capillary from room temperature to body temperature. The temperature of the capillary serves as an indicator for the patency of the shunt. The temperature is measured by means of a NiCrNi-thermo-couple.
Antithrombotic effect of P79 compared to recombinant hirudin in the arteriovenous shunt model in rats 5 min. after intravenous administration (n - number of animals used. Results are shown in Table II below. TABLE II

bovine α-thrombin = biological target: T1, bovine α-thrombin (Bos taurus, UniProt P00735); test: Amidolytic (fluorogenic) assay of thrombin activity, hydrolysis of Tosyl-Gly-Pro-Arg-AMC; type: biochemical; settings: mean of three determinations ± SEM, ni: not inhibited
T1 construct: the enzyme (human or bovine α-thrombin 0.4 nM)

human α-thrombin = biological target: T2, human α-thrombin (Homo sapiens, UniProt P00734); test: as above; type: biochemical; settings: mean of three determinations ± SEM, ni: not inhibited
T2 construct: the enzyme (human or bovine α-thrombin 0.4 nM)
Protocol: Thrombin-catalyzed hydrolysis of Tos-Gly-Pro-Arg-pNA was monitored at 405 nm on a Varian Cary 2000 double beam spectrophotometer using substrate concentrations of 2.5, 3.5, 5 and 10 µM in a final volume of 1mL. The hydrolytic reactions were performed at 25°C in 0.1 M Tris-HCl buffer, pH 7.8, containing 0.1 M NaCl and 0.1% PEG 6000. The reactions were initiated by addition of the substrate dissolved in 0.1 M Tris-HCl buffer, pH 7.8 to a preincubated solution of enzyme (0.4 or 0.04 nM) and variable concentrations of inhibitor dissolved in the same buffer. Initial velocities were recorded and Ki values were determined graphically by weighted linear regression of Dixon plots in the case of competitive inhibition, or by the method of Baici (Baici, 1981) for hyperbolic inhibition. Fluorogenic assays were conducted using the same conditions and instrument as above operating in the fluorescence mode in the Ratio (λex=383 nm, λem=455 nm). Fluorescence intensities were calibrated with 7-amino-4-methyl coumarin solution of known concentration. The specificity of the synthetic peptides of the present invention for human α-thrombin may also be determined by comparing their relative inhibitory activities towards both human α-thrombin and bovine α-thrombin and trypsin by comparing K1 values obtained in the amidolytic assay of thrombin activity.

Substance | proteolysis [1] | ED15 (rats) | Ki (bovine α-thrombin) | Ki (human α-thrombin)
[D-Phe^45,Arg^47,ψ(COCH2)CH2CH2CO^47]hirudin^45-65 [P79] | minimal or no proteolysis | 0.42 mg/kg | – | –
TPKPQSHNDGD [P51, hirudin^45-55] | – | – | 720 ± 130 nM | 110 ± 3 nM
